Source: ChEMBL document CHEMBL1149262, “Monoamine transporter binding, locomotor activity, and drug discrimination properties of 3-(4-substituted-phenyl)tropane-2-carboxylic acid methyl ester isomers” (J Med Chem, 2004)
Activity calls are given as the source filed them. No cut-off for these calls is given here.

How the values were obtained:
Mus musculus [1] = test: Locomotor activity in CD1 mouse assessed as stimulation at 3 mg/kg, ip after 1 hr relative to control; type: functional; conditions: route intraperitoneal
Rattus norvegicus [2] = test: Drug discrimination effect in CD Albino rat assessed as percent of rat choosing cocaine lever at 17 mg/kg, ip; type: functional; conditions: route intraperitoneal
Rattus norvegicus [3] = test: Drug discrimination effect in CD Albino rat assessed as percent of rat choosing cocaine lever at 3 mg/kg, ip; type: functional; conditions: route intraperitoneal
Mus musculus [4] = test: Activity in CD1 mouse assessed as hind limb splay at 100 mg/kg, ip after 4 hrs; type: functional, organism-based; design: dose 100 mg/kg; conditions: Hindlimb
Mus musculus [5] = test: Activity in CD1 mouse assessed as hypoactivity at 100 mg/kg, ip after 4 hrs; type: functional, organism-based; design: dose 100 mg/kg
Mus musculus [6] = test: Locomotor activity in CD1 mouse assessed as stimulation at 1 mg/kg, ip after 1 hr relative to control; type: functional; conditions: route intraperitoneal
Mus musculus [7] = test: Locomotor activity in CD1 mouse assessed as stimulation at 10 mg/kg, ip after 2 hrs relative to control; type: functional; conditions: route intraperitoneal
Mus musculus [8] = test: Locomotor activity in CD1 mouse assessed as stimulation at 30 mg/kg, ip after 4 hrs relative to control; type: functional; conditions: route intraperitoneal
Mus musculus [9] = test: Locomotor activity in CD1 mouse assessed as stimulation at 3 mg/kg, ip after 3 hrs relative to control; type: functional; conditions: route intraperitoneal
[10] = biological target: Sodium-dependent noradrenaline transporter (Homo sapiens, UniProt P23975); test: Displacement of [3H]nisoxetine from NET
Sequence of Sodium-dependent noradrenaline transporter (P23975 whole entry): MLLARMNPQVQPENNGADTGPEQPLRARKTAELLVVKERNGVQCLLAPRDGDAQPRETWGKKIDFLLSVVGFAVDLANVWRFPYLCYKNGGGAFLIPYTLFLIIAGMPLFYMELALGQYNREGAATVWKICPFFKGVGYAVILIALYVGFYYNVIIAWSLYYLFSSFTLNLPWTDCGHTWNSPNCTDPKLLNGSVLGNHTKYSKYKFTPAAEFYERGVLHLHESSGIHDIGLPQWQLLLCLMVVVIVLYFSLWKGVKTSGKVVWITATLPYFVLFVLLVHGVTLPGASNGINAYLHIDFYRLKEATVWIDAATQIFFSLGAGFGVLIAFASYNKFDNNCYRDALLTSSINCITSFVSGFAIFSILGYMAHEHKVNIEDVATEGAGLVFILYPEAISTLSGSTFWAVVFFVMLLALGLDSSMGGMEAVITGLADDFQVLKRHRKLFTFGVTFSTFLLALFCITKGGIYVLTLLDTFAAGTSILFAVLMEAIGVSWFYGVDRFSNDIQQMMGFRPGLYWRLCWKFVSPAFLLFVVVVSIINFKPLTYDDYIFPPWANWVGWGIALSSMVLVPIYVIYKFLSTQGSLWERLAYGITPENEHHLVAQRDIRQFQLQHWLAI

Mus musculus [11] = test: Activity in CD1 mouse assessed as ataxia at 100 mg/kg, ip after 4 hrs; type: functional, organism-based; design: dose 100 mg/kg
Mus musculus [12] = test: Activity in CD1 mouse assessed as circling at 100 mg/kg, ip after 4 hrs; type: functional, organism-based; design: dose 100 mg/kg
Rattus norvegicus [13] = test: Drug discrimination effect in CD Albino rat assessed as percent of rat choosing cocaine lever at 10 mg/kg, ip; type: functional; conditions: route intraperitoneal
Mus musculus [14] = test: Locomotor activity in CD1 mouse assessed as stimulation at 1 mg/kg, ip after 2 hrs relative to control; type: functional; conditions: route intraperitoneal
Mus musculus [15] = test: Locomotor activity in CD1 mouse assessed as stimulation at 30 mg/kg, ip after 3 hrs relative to control; type: functional; conditions: route intraperitoneal
Mus musculus [16] = test: Locomotor activity in CD1 mouse assessed as stimulation at 30 mg/kg, ip after 1 hr relative to control; type: functional; conditions: route intraperitoneal
Mus musculus [17] = test: Locomotor activity in CD1 mouse assessed as stimulation at 1 mg/kg, ip after 4 hrs relative to control; type: functional; conditions: route intraperitoneal
Mus musculus [18] = test: Locomotor activity in CD1 mouse assessed as stimulation at 3 mg/kg, ip after 4 hrs relative to control; type: functional; conditions: route intraperitoneal
Rattus norvegicus [19] = test: Drug discrimination effect in CD Albino rat assessed as percent of rat choosing cocaine lever at 5.6 mg/kg, ip; type: functional; conditions: route intraperitoneal
Mus musculus [20] = test: Locomotor activity in CD1 mouse assessed as stimulation at 30 mg/kg, ip after 2 hrs relative to control; type: functional; conditions: route intraperitoneal
Rattus norvegicus [21] = test: Cocaine discrimination in ip dosed CD Albino rat; type: functional
Mus musculus [22] = test: Locomotor activity in CD1 mouse assessed as stimulation at 3 mg/kg, ip after 2 hrs relative to control; type: functional; conditions: route intraperitoneal
Rattus norvegicus [23] = test: Drug discrimination effect in CD Albino rat assessed as percent of rat choosing cocaine lever at 30 mg/kg, ip; type: functional; conditions: route intraperitoneal
Mus musculus [24] = test: Locomotor activity in CD1 mouse assessed as stimulation at 10 mg/kg, ip after 3 hrs relative to control; type: functional; conditions: route intraperitoneal
[25] = biological target: Sodium-dependent dopamine transporter (Homo sapiens, UniProt Q01959); test: Displacement of [3H]WIN-35428 from DAT
Sequence of Sodium-dependent dopamine transporter (Q01959 whole entry): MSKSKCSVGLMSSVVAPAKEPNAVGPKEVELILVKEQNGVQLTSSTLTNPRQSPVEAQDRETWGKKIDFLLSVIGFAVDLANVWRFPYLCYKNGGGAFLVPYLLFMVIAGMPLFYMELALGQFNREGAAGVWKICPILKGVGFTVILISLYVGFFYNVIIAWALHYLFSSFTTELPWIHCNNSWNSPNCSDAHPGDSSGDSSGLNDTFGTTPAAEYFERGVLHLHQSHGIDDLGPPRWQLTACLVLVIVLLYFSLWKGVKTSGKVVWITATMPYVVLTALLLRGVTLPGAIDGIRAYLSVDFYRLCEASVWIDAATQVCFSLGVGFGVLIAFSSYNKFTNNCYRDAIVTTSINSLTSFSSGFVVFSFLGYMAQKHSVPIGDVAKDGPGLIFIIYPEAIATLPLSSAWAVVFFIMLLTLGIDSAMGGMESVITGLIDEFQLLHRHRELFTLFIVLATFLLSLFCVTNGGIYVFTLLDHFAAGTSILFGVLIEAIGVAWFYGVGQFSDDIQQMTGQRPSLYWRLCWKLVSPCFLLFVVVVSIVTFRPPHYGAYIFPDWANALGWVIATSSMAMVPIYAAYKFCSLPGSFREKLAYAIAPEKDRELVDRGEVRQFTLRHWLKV

Mus musculus [26] = test: Locomotor activity in CD1 mouse assessed as stimulation at 1 mg/kg, ip after 3 hrs relative to control; type: functional; conditions: route intraperitoneal
Mus musculus [27] = test: Activity in CD1 mouse assessed as slight or intermittent stimulation at 10 mg/kg, ip after 4 hrs; type: functional, organism-based; design: dose 10 mg/kg
Mus musculus [28] = test: Activity in CD1 mouse assessed as convulsions at 100 mg/kg, ip after 4 hrs; type: functional, organism-based; design: dose 100 mg/kg
Mus musculus [29] = test: Locomotor activity in CD1 mouse assessed as stimulation at 10 mg/kg, ip after 1 hr relative to control; type: functional; conditions: route intraperitoneal
Mus musculus [30] = test: Locomotor activity in CD1 mouse assessed as stimulation at 10 mg/kg, ip after 4 hrs relative to control; type: functional; conditions: route intraperitoneal
Mus musculus [31] = test: Activity in CD1 mouse assessed as hypoactivity at 10 mg/kg, ip after 4 hrs; type: functional, organism-based; design: dose 10 mg/kg
Mus musculus [32] = test: Locomotor activity in ip dosed CD1 mouse in peak hour; type: functional
Mus musculus [33] = test: Activity in CD1 mouse assessed as death at 100 mg/kg, ip after 4 hrs; type: functional, organism-based; design: dose 100 mg/kg
Mus musculus [34] = test: Activity in CD1 mouse assessed as ptosis at 10 mg/kg, ip after 4 hrs; type: functional, organism-based; design: dose 10 mg/kg
Mus musculus [35] = test: Activity in CD1 mouse assessed as straub tail at 100 mg/kg, ip after 4 hrs; type: functional, organism-based; design: dose 100 mg/kg
[36] = biological target: Sodium-dependent serotonin transporter (Homo sapiens, UniProt P31645)
Sequence of Sodium-dependent serotonin transporter (P31645 whole entry): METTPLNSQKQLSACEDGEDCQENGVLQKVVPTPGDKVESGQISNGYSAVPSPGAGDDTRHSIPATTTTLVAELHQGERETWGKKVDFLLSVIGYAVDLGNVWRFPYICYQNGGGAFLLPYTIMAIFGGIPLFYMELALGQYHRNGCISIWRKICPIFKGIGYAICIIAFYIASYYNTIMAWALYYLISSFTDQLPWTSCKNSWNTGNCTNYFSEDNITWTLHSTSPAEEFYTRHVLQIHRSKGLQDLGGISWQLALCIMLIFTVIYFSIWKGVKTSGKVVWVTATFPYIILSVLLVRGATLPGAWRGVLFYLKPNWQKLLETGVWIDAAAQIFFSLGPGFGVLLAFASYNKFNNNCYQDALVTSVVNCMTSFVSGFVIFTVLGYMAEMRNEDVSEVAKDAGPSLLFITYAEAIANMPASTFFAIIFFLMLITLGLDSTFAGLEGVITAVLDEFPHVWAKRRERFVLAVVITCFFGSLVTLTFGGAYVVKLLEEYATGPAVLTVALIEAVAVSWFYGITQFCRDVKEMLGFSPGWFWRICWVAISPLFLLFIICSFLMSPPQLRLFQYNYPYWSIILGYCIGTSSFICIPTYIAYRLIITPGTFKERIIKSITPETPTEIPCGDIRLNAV
Description: Displacement of [3H]paroxetine from 5HTT

Mus musculus [37] = test: Activity in CD1 mouse assessed as stereotypy at 100 mg/kg, ip after 4 hrs; type: functional, organism-based; design: dose 100 mg/kg
Mus musculus [38] = test: Activity in CD1 mouse assessed as ptosis at 100 mg/kg, ip after 4 hrs; type: functional, organism-based; design: dose 100 mg/kg
Mus musculus [39] = test: Activity in CD1 mouse assessed as stereotypy at 10 mg/kg, ip after 4 hrs; type: functional, organism-based; design: dose 10 mg/kg

SMILES | Activity (Mus musculus [1]) | Activity (Rattus norvegicus [3]) | Activity (Mus musculus [5]) | Activity (Mus musculus [6]) | Activity (Mus musculus [7]) | Activity (Mus musculus [8]) | Activity (Mus musculus [9]) | Activity (Mus musculus [12]) | Activity (Rattus norvegicus [13]) | Activity (Mus musculus [14]) | Activity (Mus musculus [15]) | Activity (Mus musculus [16]) | Activity (Mus musculus [17]) | Activity (Mus musculus [18]) | Activity (Rattus norvegicus [19]) | Activity (Mus musculus [20]) | ED50 (Rattus norvegicus [21]) | Activity (Mus musculus [22]) | Activity (Mus musculus [24]) | IC50 [25] | also measured
COC(=O)[C@H]1C2CCC(C[C@@H]1c1ccc(C)cc1)N2C (stereo not given in full) | 20% | 13% | Active | -42% | -11% | 42% | -1% | Active | 71% | -76% | 17% | -23% | -68% | 39% | 43% | 7% | 7.11 mg/kg | 10% | 6% | 207 nM | Activity (Rattus norvegicus [2]): 71%; Activity (Mus musculus [4]): Active; IC50 [10]: 2230 nM; Ki [10]: 1120 nM; Activity (Mus musculus [11]): Active; Activity (Rattus norvegicus [23]): 100%; Activity (Mus musculus [26]): 39%; Activity (Mus musculus [27]): Active; Activity (Mus musculus [28]): Active; Activity (Mus musculus [29]): 24%; Activity (Mus musculus [30]): 55%
COC(=O)[C@H]1C2CCC(C[C@@H]1c1ccc(Br)cc1)N2C (stereo not given in full) | 19% | 25% | Active | 9% | 268% | 373% | 100% | Active | 86% | 26% | 901% | -33% | -5% | 29% | 17% | 640% | 7.29 mg/kg | 123% | 267% | 15.7 nM | Activity (Mus musculus [31]): Active; ED50 (Mus musculus [32]): 10 mg/kg; Activity (Mus musculus [33]): Active; Activity (Mus musculus [34]): Active; Activity (Mus musculus [35]): Active; IC50 [36]: 570 nM; Ki [36]: 140 nM; Activity (Mus musculus [37]): Active; Activity (Mus musculus [38]): Active; Activity (Mus musculus [26]): 56%; Activity (Mus musculus [28]): Active; Activity (Mus musculus [29]): 49%; Activity (Mus musculus [39]): Active; Activity (Mus musculus [30]): 74%
